We go through 18 molecules from US12264156B2, “Compounds and pharmaceutical compositions thereof for the treatment of diseases” (GALAPAGOS NV, priority 2018, dated 2025).

Common to all, as to type: biochemical
What all share (conditions): ADP-Glo SIK kinase assay
In general terms: ADP-Glo first removes unused ATP, then detects ADP through luciferase.

The target of one test is T1, SIK3 (Homo sapiens, UniProt Q9Y2K2).
T1 construct: purchased SignalChem S12-11G-100
The test is described as follows: ADP-Glo kinase assay, SIK3. An outline of the steps: (§1)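 ADP-Glo, RT throughout. Enz/substrate + ATP, 120 min; ADP-Glo reagent 40 min (ATP depletion); detection reagent 30 min; luminescence read. Neg ctrl 1% DMSO, pos ctrl 10 μM staurosporine, final concs.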

The target in a further test is T2, SIK2 (Homo sapiens, UniProt Q9H0K1).
T2 construct: purchased ThermoFisher Scientific PV4792
T2 sequence (Q9H0K1 whole entry): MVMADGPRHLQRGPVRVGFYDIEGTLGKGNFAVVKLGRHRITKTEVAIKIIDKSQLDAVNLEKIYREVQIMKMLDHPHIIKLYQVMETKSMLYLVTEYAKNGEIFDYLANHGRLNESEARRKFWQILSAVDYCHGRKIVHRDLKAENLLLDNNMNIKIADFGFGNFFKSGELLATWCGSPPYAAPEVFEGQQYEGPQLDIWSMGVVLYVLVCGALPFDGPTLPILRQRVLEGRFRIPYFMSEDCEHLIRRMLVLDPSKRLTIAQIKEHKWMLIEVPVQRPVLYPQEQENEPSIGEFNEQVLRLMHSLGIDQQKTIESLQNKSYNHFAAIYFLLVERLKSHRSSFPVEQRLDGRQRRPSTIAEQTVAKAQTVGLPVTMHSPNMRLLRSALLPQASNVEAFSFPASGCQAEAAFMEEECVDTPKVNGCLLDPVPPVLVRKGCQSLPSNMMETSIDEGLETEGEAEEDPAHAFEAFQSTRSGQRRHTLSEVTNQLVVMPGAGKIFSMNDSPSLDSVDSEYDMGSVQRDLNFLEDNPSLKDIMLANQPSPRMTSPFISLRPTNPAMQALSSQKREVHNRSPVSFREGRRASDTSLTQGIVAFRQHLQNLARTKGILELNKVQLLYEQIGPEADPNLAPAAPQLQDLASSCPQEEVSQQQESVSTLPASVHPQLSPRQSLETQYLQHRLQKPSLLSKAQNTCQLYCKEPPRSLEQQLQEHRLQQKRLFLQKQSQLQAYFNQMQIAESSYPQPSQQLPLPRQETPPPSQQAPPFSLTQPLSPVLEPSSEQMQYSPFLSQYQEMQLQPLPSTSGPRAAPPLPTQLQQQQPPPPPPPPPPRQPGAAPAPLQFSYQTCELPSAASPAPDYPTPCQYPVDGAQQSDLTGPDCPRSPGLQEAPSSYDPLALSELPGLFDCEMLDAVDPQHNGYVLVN
Briefly: ADP-Glo kinase assay, SIK2. An outline of the steps:
as §1

The target of another test is T3, SIK1 (Homo sapiens, UniProt P57059).
T3 construct: purchased Carna Biosciences 02-131
T3 sequence (P57059 whole entry): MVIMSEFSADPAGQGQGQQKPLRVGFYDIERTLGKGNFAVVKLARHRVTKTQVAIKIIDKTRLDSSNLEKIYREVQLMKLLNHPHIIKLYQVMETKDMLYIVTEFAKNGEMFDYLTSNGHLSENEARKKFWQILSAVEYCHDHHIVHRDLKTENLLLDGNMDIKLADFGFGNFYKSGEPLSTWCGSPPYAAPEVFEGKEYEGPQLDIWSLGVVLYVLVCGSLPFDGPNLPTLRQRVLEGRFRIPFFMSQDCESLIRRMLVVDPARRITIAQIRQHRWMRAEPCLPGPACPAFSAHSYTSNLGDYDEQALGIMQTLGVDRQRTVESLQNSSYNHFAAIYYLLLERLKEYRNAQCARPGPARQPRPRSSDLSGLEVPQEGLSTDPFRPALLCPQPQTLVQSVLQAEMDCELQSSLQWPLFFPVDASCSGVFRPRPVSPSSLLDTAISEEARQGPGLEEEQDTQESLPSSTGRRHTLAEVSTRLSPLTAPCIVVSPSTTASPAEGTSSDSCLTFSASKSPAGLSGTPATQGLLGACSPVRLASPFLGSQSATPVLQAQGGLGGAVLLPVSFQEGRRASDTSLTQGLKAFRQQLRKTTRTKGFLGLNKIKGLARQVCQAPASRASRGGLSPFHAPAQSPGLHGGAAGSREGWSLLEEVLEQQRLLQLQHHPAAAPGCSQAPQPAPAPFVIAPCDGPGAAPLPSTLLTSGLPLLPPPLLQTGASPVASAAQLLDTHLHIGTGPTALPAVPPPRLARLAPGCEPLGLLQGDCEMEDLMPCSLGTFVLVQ
Briefly: ADP-Glo kinase assay, SIK1. An outline of the steps:
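Wells with 1% DMSO or 10 μM staurosporine (final) define the control window. The kinase reaction with substrate and ATP runs 120 min at RT, followed by ADP-Glo detection: ATP depletion (40 min) and ADP-derived luminescence (30 min).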

SMILES strings stand for the structures.

T1 sequence (Q9Y2K2 whole entry): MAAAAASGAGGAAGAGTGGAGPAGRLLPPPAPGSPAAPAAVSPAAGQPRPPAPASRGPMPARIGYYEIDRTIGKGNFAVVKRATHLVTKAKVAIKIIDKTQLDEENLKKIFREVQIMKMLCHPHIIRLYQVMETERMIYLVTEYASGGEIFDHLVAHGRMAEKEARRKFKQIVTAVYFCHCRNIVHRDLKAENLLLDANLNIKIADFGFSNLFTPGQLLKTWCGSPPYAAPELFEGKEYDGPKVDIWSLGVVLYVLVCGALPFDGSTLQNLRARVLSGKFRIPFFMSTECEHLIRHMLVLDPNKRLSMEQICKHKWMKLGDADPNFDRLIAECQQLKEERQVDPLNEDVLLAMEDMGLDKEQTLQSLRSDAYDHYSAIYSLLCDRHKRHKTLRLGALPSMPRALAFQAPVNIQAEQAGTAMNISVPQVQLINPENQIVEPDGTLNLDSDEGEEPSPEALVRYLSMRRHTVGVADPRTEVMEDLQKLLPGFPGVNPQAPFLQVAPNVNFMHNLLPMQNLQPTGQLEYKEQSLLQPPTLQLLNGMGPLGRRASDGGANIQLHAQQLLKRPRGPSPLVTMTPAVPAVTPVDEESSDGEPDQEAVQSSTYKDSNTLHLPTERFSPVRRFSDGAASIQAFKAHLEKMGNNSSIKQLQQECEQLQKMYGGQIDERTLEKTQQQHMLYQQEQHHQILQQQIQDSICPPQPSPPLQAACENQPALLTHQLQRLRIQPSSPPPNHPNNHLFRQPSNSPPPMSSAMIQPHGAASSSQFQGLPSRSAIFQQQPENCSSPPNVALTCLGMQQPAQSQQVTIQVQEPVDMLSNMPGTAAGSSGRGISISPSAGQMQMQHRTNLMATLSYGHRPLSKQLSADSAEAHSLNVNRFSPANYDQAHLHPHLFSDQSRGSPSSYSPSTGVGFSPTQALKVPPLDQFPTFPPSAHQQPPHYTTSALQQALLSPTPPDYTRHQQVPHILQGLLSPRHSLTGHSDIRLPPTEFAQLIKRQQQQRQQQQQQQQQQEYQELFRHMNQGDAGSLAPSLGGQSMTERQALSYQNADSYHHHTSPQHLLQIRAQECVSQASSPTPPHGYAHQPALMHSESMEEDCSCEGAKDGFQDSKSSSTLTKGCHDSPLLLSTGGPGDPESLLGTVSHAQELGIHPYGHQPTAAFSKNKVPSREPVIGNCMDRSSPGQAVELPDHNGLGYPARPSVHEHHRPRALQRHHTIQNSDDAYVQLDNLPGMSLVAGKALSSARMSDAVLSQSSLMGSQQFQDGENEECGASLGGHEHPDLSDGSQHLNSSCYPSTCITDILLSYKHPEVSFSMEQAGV

What is called IC50 is the concentration at which inhibition is half-maximal. On to `COc1cc(-c2cnc3cc(OCCN4C5CCC4COC5)ccn23)cc2c1C(=O)N(CC(F)(F)F)CC2` [compound 246, 8-methoxy-6-[7-[2-(3-oxa-8-azabicyclo[3.2.1]octan-8-yl)ethoxy]imidazo[1,2-a]pyridin-3-yl]-2-(2,2,2-trifluoroethyl)-3,4-dihydroisoquinolin-1-one], for which the IC50 fell in the range of 10 to 100 nM on SIK3, 0.01 to 10 nM against SIK2 and 100 to 500 nM against SIK1.

With `COc1cc(-c2cnc3cc(OCCC4CCCCN4C)ccn23)cc(OC(F)F)c1C(=O)NC1CC1` (stereo not drawn) [compound 24, N-cyclopropyl-2-(difluoromethoxy)-6-methoxy-4-[7-[2-(1-methyl-2-piperidyl)ethoxy]imidazo [1,2-a]pyridin-3-yl]benzamide], the IC50 against SIK3, on SIK2 and against SIK1 was 0.01 to 10 nM throughout.

Regarding `COc1cc(-c2cnc3cc(OCC4COCCN4C)ccn23)cc(OC(F)F)c1C(=O)NC1CC1` (stereo not drawn) [compound 201, N-cyclopropyl-2-(difluoromethoxy)-6-methoxy-4-[7-[(4-methylmorpholin-3-yl)methoxy]imidazo[1,2-a]pyridin-3-yl]benzamide], the half-maximal inhibitory concentration (IC50) was 0.01 to 10 nM at SIK3, 10 to 100 nM at SIK2 and 10 to 100 nM on SIK1.

As for `COc1cc(-c2cnc3cc(OCc4nccn4C(C)C)ccn23)cc(OC(F)F)c1C(=O)NC1CC1` [compound 175, N-cyclopropyl-2-(difluoromethoxy)-4-[7-[(1-isopropylimidazol-2-yl)methoxy]imidazo[1,2-a]pyridin-3-yl]-6-methoxy-benzamide], the IC50 against SIK3 lay within 0.01 to 10 nM; on SIK2, 0.01 to 10 nM; against SIK1 it was 100 to 500 nM.

For the molecule `COc1cc(-c2cnc3cc(OC[C@H]4CCCN(CCC#N)C4)ccn23)cc(OC(F)F)c1C(=O)NC1CC1` [compound 351, 4-[7-[[(3S)-1-(2-cyanoethyl)-3-piperidyl]methoxy]imidazo [1,2-a]pyridin-3-yl]-N-cyclopropyl-2-(difluoromethoxy)-6-methoxy-benzamide], the IC50 at SIK3, against SIK2 and on SIK1 was 0.01 to 10 nM throughout.

Regarding `COc1cc(-c2cnc3cc(OCCN(C)c4ccncc4)ccn23)cc(OC(F)F)c1C(=O)NC1CC1` [compound 223, N-cyclopropyl-2-(difluoromethoxy)-6-methoxy-4-[7-[2-[methyl(4-pyridyl)amino]ethoxy]imidazo[1,2-a]pyridin-3-yl]benzamide], the IC50 against SIK3, against SIK2 and on SIK1 was 0.01 to 10 nM throughout.

Take `COc1cc(-c2cnc3cc(OC4CCOC4)ccn23)cc(OC(F)F)c1C(=O)NC1CC1` (stereo not drawn) [compound 163, N-cyclopropyl-2-(difluoromethoxy)-6-methoxy-4-(7-tetrahydrofuran-3-yloxyimidazo[1,2-a]pyridin-3-yl)benzamide]: the IC50 was in the range of 0.01 to 10 nM against SIK3, 10 to 100 nM against SIK2 and 10 to 100 nM against SIK1.

Regarding `COc1cc(-c2cnc3cc(OCc4ncccn4)ccn23)cc(OC(F)F)c1C(=O)NC1CC1` [compound 94, N-cyclopropyl-2-(difluoromethoxy)-6-methoxy-4-[7-(pyrimidin-2-ylmethoxy)imidazo[1,2-a]pyridin-3-yl]benzamide], the half-inhibitory concentration (IC50) against SIK3, on SIK2 and against SIK1 was 10 to 100 nM each time.

Consider `O=C1c2c(cc(-c3cnc4cc(OCCN5CCOCC5)ccn34)cc2OC(F)F)CCN1CC(F)F` [Cpd 247, 2-(2,2-difluoroethyl)-8-(difluoromethoxy)-6-[7-(2-morpholinoethoxy)imidazo[1,2-a]pyridin-3-yl]-3,4-dihydroisoquinolin-1-one], for which the IC50 at SIK3 lay within 0.01 to 10 nM; at SIK2, 0.01 to 10 nM; against SIK1, 100 to 500 nM.

`CCC(COc1ccn2c(-c3cc(OC)c(C(=O)NC4CC4)c(OC(F)F)c3)cnc2c1)N(C)C` (stereo not drawn) [compound 203]: the IC50 against SIK3 is 0.01 to 10 nM; against SIK2 it was 10 to 100 nM; at SIK1, 100 to 500 nM.

On to `COc1cc(-c2cnc3cc(OCC(F)F)ccn23)cc(OC(F)F)c1C(=O)NC1CC1` [compound 90, N-cyclopropyl-4-[7-(2,2-difluoroethoxy)imidazo [1,2-a]pyridin-3-yl]-2-(difluoromethoxy)-6-methoxy-benzamide], for which the 50% inhibitory concentration (IC50) is 0.01 to 10 nM against SIK3, 0.01 to 10 nM against SIK2 and 10 to 100 nM on SIK1.

In the case of `COc1cc(-c2cnc3cc(OCCO)ccn23)cc(OC(F)F)c1C(=O)NC1CC1` [compound 30, N-cyclopropyl-2-(difluoromethoxy)-4-[7-(2-hydroxyethoxy)imidazo [1,2-a]pyridin-3-yl]-6-methoxy-benzamide], the results for the IC50 on SIK3, against SIK2 and against SIK1 were 0.01 to 10 nM, 0.01 to 10 nM and 10 to 100 nM, respectively.

On to `COC(=O)N1CCCCC1COc1ccn2c(-c3cc(OC)c(C(=O)NC4CC4)c(OC(F)F)c3)cnc2c1` (stereo not drawn) [Cpd 130, methyl 2-[[3-[4-(cyclopropylcarbamoyl)-3-(difluoromethoxy)-5-methoxy-phenyl]imidazo[1,2-a]pyridin-7-yl]oxymethyl]piperidine-1-carboxylate], for which the concentration for half-maximal inhibition (IC50) against SIK3, on SIK2 and against SIK1 was 0.01 to 10 nM each time.

As to `COc1cc(-c2cnc3cc(OC[C@H]4CCCN4CC(F)F)ccn23)cc(OC(F)F)c1C(=O)NC1CC1` [compound 80, N-cyclopropyl-4-[7-[[(2R)-1-(2,2-difluoroethyl)pyrrolidin-2-yl]methoxy]imidazo[1,2-a]pyridin-3-yl]-2-(difluoromethoxy)-6-methoxy-benzamide], the 50% inhibitory concentration (IC50) on SIK3 is 0.01 to 10 nM; against SIK2, 0.01 to 10 nM; on SIK1 it was 10 to 100 nM.

With `COc1cc(-c2cnc3cc(OCCF)ccn23)cc(OC(F)F)c1C(=O)NC1CC1` [compound 36, N-cyclopropyl-2-(difluoromethoxy)-4-[7-(2-fluoroethoxy)imidazo[1,2-a]pyridin-3-yl]-6-methoxy-benzamide], the concentration for half-maximal inhibition (IC50) at SIK3 was in the range of 0.01 to 10 nM; on SIK2, 0.01 to 10 nM; against SIK1, 10 to 100 nM.

As to `COc1cc(-c2cnc3cc(OCC4(C)CNC4)ccn23)cc(OC(F)F)c1C(=O)NC1CC1` [compound 208, N-cyclopropyl-2-(difluoromethoxy)-6-methoxy-4-[7-[(3-methylazetidin-3-yl)methoxy]imidazo[1,2-a]pyridin-3-yl]benzamide], the results for the IC50 against SIK3, at SIK2 and against SIK1 were 0.01 to 10 nM, 0.01 to 10 nM and 10 to 100 nM, respectively.

As for `COc1cc(-c2cnc3cc(OCCCN4CC5(CC(O)C5)C4)ccn23)cc(OC(F)F)c1C(=O)NC1CC1` [compound 297, N-cyclopropyl-2-(difluoromethoxy)-4-[7-[3-(6-hydroxy-2-azaspiro[3.3]heptan-2-yl)propoxy]imidazo[1,2-a]pyridin-3-yl]-6-methoxy-benzamide], the values for the 50% inhibitory concentration (IC50) against SIK3, against SIK2 and against SIK1 were 0.01 to 10 nM, 0.01 to 10 nM and 10 to 100 nM, respectively.

`COc1cc(-c2cnc3cc(OCC4(N)COC4)ccn23)cc(OC(F)F)c1C(=O)NC1CC1` [compound 170, 4-[7-[(3-aminooxetan-3-yl)methoxy]imidazo[1,2-a]pyridin-3-yl]-N-cyclopropyl-2-(difluoromethoxy)-6-methoxy-benzamide]: the IC50 against SIK3 is 0.01 to 10 nM; at SIK2, 0.01 to 10 nM; on SIK1, 10 to 100 nM.
